Structures can show the parent of a compound that is named as a salt. Values belong to the compound of their own block, whether it stands above or below them.
Assays:
[1] = test system: α-MpT-induced hypokinesia in rats; assay: Reversal of α-MpT-induced hypokinesia in rats; format: in vivo, rat; settings: for Score + SE (total motor activity, 10 hours): α-MpT 100 mg/kg i.p.
Procedure: The drug α-MpT is assumed to inhibit the formation of L-DOPA from tyrosine, and consequently the formation of dopamine itself. Lack of CNS dopamine is expressed as hypoactivity. […] Two hours later they received i.p. α-MpT at a dose of 100 mg/kg in 0.3-0.5 mL. Controls received saline. Following this, motor activity was recorded in a computerized activity cage for the duration of 10 hours.

[2] = test system: haloperidol-induced catalepsy in mice; assay: Reversal of haloperidol-induced catalepsy in mice; format: in vivo, mouse; settings: for Score + SE: haloperidol 6 mg/kg s.c., max score 12; for % of control: score vs saline control
Procedure: All drugs were administered i.p. in a volume of 0.2 mL. Two hours later, haloperidol was injected s.c. at a dose of 6 mg/kg in a volume of 0.1-0.2 mL. Motor coordination tests were made at 3 hours after giving haloperidol, that is, 5 hours after administering the presumed protective drugs.
Motor coordination tests and rigidity were quantified according to three different parameters: (a) ability to walk the length of a horizontal rod, 80 cm-long; (b) ability to climb down, face down, a vertical rod, 80 cm-long; (c) duration of immobility in an unnatural sitting posture whereby the abdomen of the mouse is pressed against a “wall.” Full performance as in haloperidol-untreated mice is given the score of 4 in each test, or a total of 12 in all tests. Poor performance is given a score from 1 to 3.

MAO-B = target: T1, MAO-B (Rattus norvegicus, UniProt P19643); assay: Inhibition of MAO activity in vivo, acute treatment, MAO-B; set-up: in a rat brain preparation of MAO; host or cells: rat brain preparation
T1 sequence (P19643 1-520): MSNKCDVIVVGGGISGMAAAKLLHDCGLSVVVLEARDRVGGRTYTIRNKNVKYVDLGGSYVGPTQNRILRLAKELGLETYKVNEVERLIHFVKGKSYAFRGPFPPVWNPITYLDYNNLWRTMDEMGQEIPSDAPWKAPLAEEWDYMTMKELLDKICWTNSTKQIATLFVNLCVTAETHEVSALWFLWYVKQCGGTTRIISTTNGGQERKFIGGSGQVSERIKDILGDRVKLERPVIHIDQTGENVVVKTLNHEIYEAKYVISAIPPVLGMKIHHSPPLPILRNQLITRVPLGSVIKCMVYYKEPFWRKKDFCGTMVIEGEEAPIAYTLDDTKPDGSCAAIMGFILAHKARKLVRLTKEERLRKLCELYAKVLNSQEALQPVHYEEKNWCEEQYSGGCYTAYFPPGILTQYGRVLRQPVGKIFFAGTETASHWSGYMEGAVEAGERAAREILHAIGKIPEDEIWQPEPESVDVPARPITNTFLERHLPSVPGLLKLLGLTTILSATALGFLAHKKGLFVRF

[3] = test system: cardiovascular effects in animals; settings: cited from earlier work
MAO-A = target: T2, MAO-A (Rattus norvegicus, UniProt P21396); assay: Inhibition of MAO activity in vivo, acute treatment, MAO-A; settings: rat
T2 construct: MAO activity determined in brain and liver; from tissue; host or cells: brain and liver of male Sprague-Dawley-derived rats
T2 sequence (P21396 1-526): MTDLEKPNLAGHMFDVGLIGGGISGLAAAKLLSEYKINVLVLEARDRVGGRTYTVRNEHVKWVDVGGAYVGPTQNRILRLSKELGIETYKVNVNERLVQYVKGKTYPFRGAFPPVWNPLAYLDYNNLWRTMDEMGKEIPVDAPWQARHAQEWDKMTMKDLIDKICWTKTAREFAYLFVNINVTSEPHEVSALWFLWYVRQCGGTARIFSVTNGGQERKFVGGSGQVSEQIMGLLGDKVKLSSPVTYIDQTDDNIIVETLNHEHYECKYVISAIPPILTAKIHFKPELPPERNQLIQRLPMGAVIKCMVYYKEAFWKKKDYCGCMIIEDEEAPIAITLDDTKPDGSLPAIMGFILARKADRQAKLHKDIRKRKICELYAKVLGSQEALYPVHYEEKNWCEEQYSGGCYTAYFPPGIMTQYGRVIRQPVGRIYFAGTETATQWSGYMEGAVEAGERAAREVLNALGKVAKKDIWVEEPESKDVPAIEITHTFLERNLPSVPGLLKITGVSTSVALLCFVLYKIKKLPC

[4] = test system: maximal electroshock seizures in rats; assay: Maximal electroshock test (MES test) in rats; format: in vivo, rat; settings: p.o., 50 mg/kg
Description: The MES test is a classical model to indicate efficacy for partial and generalized seizures in humans. The agents' mechanism of action is via their ability to prevent the spread of seizures. Some agents, however, that prevent seizure spread have the side effect of lowering seizure threshold. These agents therefore have both proconvulsive and anticonvulsive side effects.

guinea-pig ileum = assay: Antagonism of bethanechol-induced (fixed dose) contractions of guinea-pig ileum; settings: bethanechol 0.8 μM
[5] = test system: neonatal rat cerebellum cell cultures; settings: 0.01 μM + NMDA
Procedure: Procedures: cultures of mechanically dissociated neonatal rat cerebellum. […] The cerebella are then dissociated after 20-25 passages through a sterile 13 gauge, 10 cm long stainless steel needle attached to a 5 ml syringe with an inserted 45 μm pore size nylon sieve. The dissociated cells are centrifuged at 200 g for 5 minutes, the supernatant discarded and the cells resuspended in enriched medium. The cell viability is determined by the trypan blue exclusion test. […] After 4 days in culture, the media are replaced with media containing the desired test compounds. Experiments are done in duplicate and repeated 2 or 3 times. […] Nerve cell survival is evaluated by phase contrast microscopy and trypan blue staining after 24 h.
Values, expressed as the percent of untreated controls, represent the average of 2 experiments run in duplicate for culture experiments, and the mean±SEM of 4 animals for ischemia. The percent protection value is the effect of the test compound after subtraction of the solvent effect.

[6] = Appearance of PAI salts under destructive conditions; format: physicochemical
Procedure: Comparative stability studies were carried out under sets of several accelerating conditions: I) heating at 80° C. for 72, 96 or 144 hours; and II) reflux in isopropanol for 30 hours. The degradation products developed were measured by HPLC and confirmed by TLC. The results are presented in Table 9 with the relative retention time (relative to the PAI peak; RRT) as an area percentage relative to ? integrated peak area.
The salts were submitted to visual inspection of color an form.

[7] = Physicochemical properties of PAI salts; settings: for pH: 1% aqueous solution of the PAI salt
Procedure: The melting range was measured with an automatic apparatus (Mettler FP 80) and thermo-gravimetric analysis was performed on a Mettler TA 3000 system at a rate of 10° C./min in the applicable range. […] The pH was measured in a 1% aqueous solution of the PAI salts.

Compound: C#CCNC1CCc2ccccc21 (racemic) [Rac PAI Mesylate]
- restoration of motor activity (in words) ([1]; 2 mg/kg): not active
- % of control ([1]; 2 mg/kg i.p., vs saline control): 57%
- Score + SE (total motor activity, 10 hours) ([1]; 2 mg/kg i.p.): 9,035 ± 829
- Score + SE (total motor activity, 10 hours) ([1]; 5 mg/kg i.p.): 10,926 ± 820
- Score + SE (total motor activity, 10 hours) ([1]; […] i.p.): 9,698 ± 557
- Score + SE ([2]; 3.0 mg/kg i.p. (free base)): 5.9 ± 0.7
- % of control ([2]; 3.0 mg/kg i.p.): 49%
- protection against haloperidol (in words) ([2]; 5 mg/kg): not active
- Score + SE ([2]; 5.0 mg/kg i.p. (free base)): 6.4 ± 0.4
- % of control ([2]; 5.0 mg/kg i.p.): 53%
- Score + SE ([2]; 10 mg/kg i.p. (free base)): 9.2 ± 0.6
- % of control ([2]; 10 mg/kg i.p.): 77%
- Score + SE ([2]; 15 mg/kg i.p. (free base)): 8.8 ± 0.8
- % of control ([2]; 15 mg/kg i.p.): 73%

Compound: C#CCNC1CCc2ccccc21 (racemic) [Rac, N-propargyl-1-aminoindan]
- IC-50 MAO-B (MAO-B; I.P., brain, 1 h after dose): 0.22 mg/kg
- IC-50 MAO-B (MAO-B; I.P., liver, 1 h after dose): 0.11 mg/kg
- IC-50 MAO-B (MAO-B; P.O., liver, 2 h after dose): 0.09 mg/kg
- blood pressure ([3]; comparative animal tests): does not increase blood pressure
- tachycardia ([3]; comparative animal tests): no significant tachycardia
- IC-50 MAO-A (MAO-A; I.P., liver, 1 h after dose): 5 mg/kg
- IC-50 MAO-A (MAO-A; P.O., brain, 2 h after dose): >5 mg/kg
- IC-50 MAO-A (MAO-A; P.O., liver, 2 h after dose): >5 mg/kg

Compound: C#CCNC1CCc2ccccc21.Cl (racemic) [racemic PAI.HCl, Racemic N-propargyl-1-aminoindan hydrochloride]
- potentiation of the cardiovascular effects of tyramine ([3]; Finberg et al.): does not potentiate

Compound: C#CCN[C@@H]1CCc2ccccc21.Cl [(R)-PAI HCl, R-(+)-N-Propargyl-1-aminoindan hydrochloride]
- animals protected from seizures [4]: three out of four
- Percent relaxation (guinea-pig ileum; PAI concentration 20 μM): 25
- Percent relaxation (guinea-pig ileum; PAI concentration 60 μM): 25-50
- Percent relaxation (guinea-pig ileum; PAI concentration 100 μM): 50-70
- Percent relaxation (guinea-pig ileum; PAI concentration 300 μM): 100

Compound: NCCCNCCCCNCCCN [Spermine, reference compound]
- Surviving Cells (percent of untreated controls) [5]: 75
- Percent Protection ([5]; after subtraction of solvent effect): 65

- appearance: color ([6]; 80° C./72 h): white
- appearance: form ([6]; 80° C./72 h): powder
- appearance: color ([6]; 80° C./144 h): white
- appearance: form ([6]; 80° C./144 h): powder
- appearance: color ([6]; reflux in iPrOH/30 h): off white
- appearance: form ([6]; reflux in iPrOH/30 h): powder
Compound: Cl [chloride]

Compound: C#CCN[C@@H]1CCc2ccccc21.CCS(=O)(=O)O [esylate]
- appearance: color ([6]; 80° C./72 h): brownish
- appearance: form ([6]; 80° C./72 h): melted
- appearance: color ([6]; 80° C./144 h): dark brown
- appearance: form ([6]; 80° C./144 h): melted
- appearance: color ([6]; reflux in iPrOH/30 h): dark brown
- appearance: form ([6]; reflux in iPrOH/30 h): melted
- pH [7]: 2.4

Compound: C#CCN[C@@H]1CCc2ccccc21.C#CCN[C@@H]1CCc2ccccc21.O=S(=O)(O)O [sulphate]
- appearance: color ([6]; 80° C./72 h): off white
- appearance: form ([6]; 80° C./72 h): powder
- appearance: color ([6]; 80° C./144 h): off white
- appearance: form ([6]; 80° C./144 h): powder
- appearance: color ([6]; reflux in iPrOH/30 h): brown
- appearance: form ([6]; reflux in iPrOH/30 h): powder
- pH [7]: 3.9
- % Wt. loss ([7]; thermo-gravimetric analysis, 10° C./min): 3.2%

- appearance: color ([6]; 80° C./72 h): brown
- appearance: form ([6]; 80° C./72 h): melted
- appearance: color ([6]; 80° C./96 h): brown
- appearance: color ([6]; reflux in iPrOH/30 h): brown
- appearance: form ([6]; reflux in iPrOH/30 h): melted
Compound: maleate

Compound: phosphate
- appearance: color ([6]; 80° C./72 h): brownish
- appearance: form ([6]; 80° C./72 h): powder
- appearance: color ([6]; 80° C./144 h): brown
- appearance: form ([6]; 80° C./144 h): powder
- appearance: color ([6]; reflux in iPrOH/30 h): brown
- appearance: form ([6]; reflux in iPrOH/30 h): powder
- pH [7]: 7.0
